Assay results from patent US6303785A, “Compounds having activity as inhibitors of cytochrome P450RAI” (Allergan Sales, Inc., priority 2000, dated 2001).

Assays:
human skin = details: known; cited from earlier work
skin of hairless mice = assay: Topical Skin Irritation Test (cutaneous toxicity / Blackjack score); assay type: in vivo, hairless mouse (Cr1:SKH1-hrBR); details: topical once daily days 1-5, mean±SD, range 0-21
Excerpt: Mice were housed individually throughout the dosing period.
Doses are disclosed as nmol/25 g.
The grading scale used is as follows:
Values can range from 0-9.
Values can range from 0-8.

RARβ [1] = assay: chimeric receptor transactivation assay, RARβ; assay type: cell-based; details: read-out: RAR EC50 β
Excerpt: (§1) Assays described below measure the ability of a compound to bind to, and/or activate various retinoid receptor subtypes. When in these assays a compound binds to a given receptor subtype and activates the transcription of a reporter gene through that subtype, then the compound is considered an agonist of that receptor subtype. […] In the below described assays the ability of the compounds to bind to RARα, […], RARγ, […] and RXRγ receptors, and the ability or inability of the compounds to activate transcription of a reporter gene through these receptor subtypes can be tested.
(§2) The results obtained in this assay are expressed in EC50 numbers, as they are also in the chimeric receptor transactivation assay. The results of ligand binding assay are expressed in Kd numbers.

RARγ = assay: chimeric receptor transactivation assay, RARγ; assay type: cell-based; details: read-out: RAR EC50 γ
Excerpt: as §1, §2

RARβ [2] = target: T1, RARβ (Homo sapiens, UniProt P10826); assay: ligand binding assay, RARβ; details: read-out: RAR Kd β
T1 sequence (P10826 1-455): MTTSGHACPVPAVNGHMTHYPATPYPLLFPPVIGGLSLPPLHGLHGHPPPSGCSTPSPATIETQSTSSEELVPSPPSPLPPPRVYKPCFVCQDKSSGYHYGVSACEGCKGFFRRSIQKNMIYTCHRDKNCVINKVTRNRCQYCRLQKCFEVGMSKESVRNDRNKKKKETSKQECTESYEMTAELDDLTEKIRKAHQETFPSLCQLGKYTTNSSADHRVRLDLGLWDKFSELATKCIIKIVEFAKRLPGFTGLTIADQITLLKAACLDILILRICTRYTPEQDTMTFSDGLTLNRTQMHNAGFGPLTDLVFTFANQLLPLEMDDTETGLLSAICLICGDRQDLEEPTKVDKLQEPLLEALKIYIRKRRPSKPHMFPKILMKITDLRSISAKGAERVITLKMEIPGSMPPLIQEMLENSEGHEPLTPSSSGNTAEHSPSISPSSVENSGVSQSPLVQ
Excerpt: as §1, §2

psoriasis = details: prior art; cited from earlier work

CC1=C(/C=C/C(C)=C/C=C/C(C)=C\C(=O)O)C(C)(C)CCC1 [13-cis RA]
skin irritation in humans (in words) (human skin): substantial skin irritation

CC1=C(/C=C/C(C)=C/C=C/C(C)=C/C(=O)O)C(C)(C)CCC1 [ATRA, all-trans-retinoic acid]
skin irritation in humans (in words) (human skin): substantial skin irritation

CC1(C)CCC(=O)c2ccc(C#Cc3ccc(CC(=O)O)cc3)cc21 [Compound 5, 4-[(8,8-Dimethyl1-5-oxo-5,6,7,8-tetrahydro-naphthalene-2-yl-ethynyl)-phenyl]-acetic acid]
Cutaneous Toxicity Score (Blackjack Score) (skin of hairless mice; 100 nmole (per 25 g)): 0
Cutaneous Toxicity Score (Blackjack Score) (skin of hairless mice; 1000 nmole (per 25 g)): 6 ± 3

CN(C1CC1)C1CCC(C)(C)c2cc(C#Cc3ccc(CC(=O)O)cc3)ccc21 (centres unmarked) [Compound 8, 4-[(5-(Cyclopropyl-methyl-amino)-8,8-dimethyl-5,6,7,8-tetrahydro-naphthalene-2-yl-ethynyl)-phenyl]-acetic acid]
Cutaneous Toxicity Score (Blackjack Score) (skin of hairless mice; 100 nmole (per 25 g)): 5 ± 2
Cutaneous Toxicity Score (Blackjack Score) (skin of hairless mice; 300 nmole (per 25 g)): 8 ± 3
Cutaneous Toxicity Score (Blackjack Score) (skin of hairless mice; 1000 nmole (per 25 g)): 12 ± 1

CC1(C)CCC(=O)c2ccc(C#Cc3ccc(C(=O)O)c(F)c3)cc21 [Compound 10, 2-Fluoro-4(8,8dimethyl-5-oxo-5,6,7,8-tetrahydro-naththalen-2yl-ethynyl)benzoic acid]
EC50 (RARβ [1]): 0.3 nM
EC50 (RARγ): 6 nM

CC1(C)CCC(=O)c2ccc(C#Cc3ccc(CC(=O)O)c(F)c3)cc21 [Compound 15, [2-Fluoro-4-(8,8-dimethyl-5-oxo-5,6,7,8-tetrahydro-naphthalene-2-yl-ethynl)phenyl]-acetic acid]
Cutaneous Toxicity Score (Blackjack Score) (skin of hairless mice; 100 nmole (per 25 g)): 1 ± 1
Cutaneous Toxicity Score (Blackjack Score) (skin of hairless mice; 1000 nmole (per 25 g)): 5 ± 2

CN(C1CC1)C1CCC(C)(C)c2cc(C#Cc3ccc(CC(=O)O)c(F)c3)ccc21 (centres unmarked) [Compound 18, [4-(5-(Cyclopropyl-methyl-amino)-8,8-dimethyl-5,6,7,8-tetrahydro-naphthalene-2-yl-ethynyl)-2-fluoro-phenyl]-acetic acid]
Cutaneous Toxicity Score (Blackjack Score) (skin of hairless mice; 100 nmole (per 25 g)): 0 ± 0
Cutaneous Toxicity Score (Blackjack Score) (skin of hairless mice; 300 nmole (per 25 g)): 5 ± 2
Cutaneous Toxicity Score (Blackjack Score) (skin of hairless mice; 1000 nmole (per 25 g)): 10 ± 2

CC1(C)CN(C2CC2)Cc2ccc(C#Cc3ccc(CC(=O)O)c(F)c3)cc21 [Compound 22, [4-(2-Cyclopropyl-4,4-dimethyl-1 2,3,4-tetrahydro-isoquinolin-6-yl-ethynyl)-2-fluoro-phenyl]-acetic acid]
Cutaneous Toxicity Score (Blackjack Score) (skin of hairless mice; 100 nmole (per 25 g)): 0 ± 0
Cutaneous Toxicity Score (Blackjack Score) (skin of hairless mice; 300 nmole (per 25 g)): 0 ± 0
Cutaneous Toxicity Score (Blackjack Score) (skin of hairless mice; 1000 nmole (per 25 g)): 1 ± 1

CC1(C)CC(C)(C)c2cc(C#Cc3ccc(CC(=O)O)cc3)cc(C3CC3)c2O1 [Compound 36, [4-(8-Cyclopropyl-2,2,4,4-tetramethyl-chroman-6-yl-ethynyl)phenyl]acetic acid]
Cutaneous Toxicity Score (Blackjack Score) (skin of hairless mice; 100 nmole (per 25 g)): 1 ± 1
Cutaneous Toxicity Score (Blackjack Score) (skin of hairless mice; 1000 nmole (per 25 g)): 11 ± 0

CC1(C)CC(C)(C)c2cc(C#Cc3ccc(CC(=O)O)c(F)c3)cc(C3CC3)c2O1 [Compound 38, [4(8-Cyclopropyl-2,2,4,4tetramethyl-chroman-6-yl-ethynyl)-2-fluoro-phenyl]acetic acid]
Cutaneous Toxicity Score (Blackjack Score) (skin of hairless mice; 100 nmole (per 25 g)): 1 ± 1
Cutaneous Toxicity Score (Blackjack Score) (skin of hairless mice; 1000 nmole (per 25 g)): 10 ± 1

CC1(C)CC2(CC2)Oc2c(C3CC3)cc(C#Cc3ccc(CC(=O)O)cc3)cc21 [Compound 48, Benzeneacetic acid, 4-[(8-cyclopropyl-3,4-dihydro-4,4-dimethylspiro[2H 1-benzopyran-2.1'-cyclopropane]-6-yl)ethanyl]-]
Cutaneous Toxicity Score (Blackjack Score) (skin of hairless mice; 100 nmole (per 25 g)): 1 ± 1
Cutaneous Toxicity Score (Blackjack Score) (skin of hairless mice; 300 nmole (per 25 g)): 3 ± 1
Cutaneous Toxicity Score (Blackjack Score) (skin of hairless mice; 1000 nmole (per 25 g)): 7 ± 2

CC1(C)CC2(CC2)Oc2c(C3CC3)cc(C#Cc3ccc(CC(=O)O)c(F)c3)cc21 [Compound 50, 4-[(8-Cyclopropyl-3,4-dihydro-4,4-dimethylspiro[2H-1-benzopyran-2,1'-cyclopropane]-6-yl)ethynyl]-2-fluoro-benzeneacetic acid]
Cutaneous Toxicity Score (Blackjack Score) (skin of hairless mice; 100 nmole (per 25 g)): 1 ± 0
Cutaneous Toxicity Score (Blackjack Score) (skin of hairless mice; 300 nmole (per 25 g)): 3 ± 2
Cutaneous Toxicity Score (Blackjack Score) (skin of hairless mice; 1000 nmole (per 25 g)): 8 ± 2

CC1(C)CC2(CC2)Oc2c(C3CC3)cc(C(=O)Oc3ccc(CC(=O)O)cc3)cc21 [Compound 58, Spiro[2H-1-benzopyran-2,1'-cyclopropane]-6-carboxylic acid, 8-cyclopropyl-3,4-dihydro-4,4-dimethyl-, 4-(carboxymethyl)phenyl ester]
Cutaneous Toxicity Score (Blackjack Score) (skin of hairless mice; 100 nmole (per 25 g)): 0 ± 0
Cutaneous Toxicity Score (Blackjack Score) (skin of hairless mice; 300 nmole (per 25 g)): 0 ± 0
Cutaneous Toxicity Score (Blackjack Score) (skin of hairless mice; 1000 nmole (per 25 g)): 0 ± 0

CCc1cc(C#Cc2ccc(C(=O)O)cc2)ccc1C1(OCc2ccccc2)CC1 [Compound 93, 4-[4-(1-Benzyloxycyclopropyl)-3-ethyl-phenylethynyl]-benzoic acid]
EC50 (RARβ [1]): 20 nM
EC50 (RARγ): 10 nM

O=C(O)c1ccc(C#Cc2ccc(C3(N(Cc4ccccc4)Cc4ccccc4)CC3)cc2)cc1 [Compound 114]
Kd (RARβ [2]): > 10 nM

CC1(C)CCC(n2ccnc2)c2ccc(C#Cc3ccc(CC(=O)O)cc3)cc21 (centres unmarked) [Compound 137, [4-(5-Imidazol-1-yl-8,8-dimethyl-5,6,7,8-tetrahydro-naphthalen-2-yl-ethynyl)-phenyl]-acetic acid]
Cutaneous Toxicity Score (Blackjack Score) (skin of hairless mice; 100 nmole (per 25 g)): 1 ± 1
Cutaneous Toxicity Score (Blackjack Score) (skin of hairless mice; 300 nmole (per 25 g)): 1 ± 1
Cutaneous Toxicity Score (Blackjack Score) (skin of hairless mice; 1000 nmole (per 25 g)): 5 ± 2

CCOC(=O)/C=C(C)/C=C/C=C(C)/C=C/c1c(C)cc(OC)c(C)c1C [etretinate]
skin irritation in humans (in words) (human skin): substantial skin irritation

Clc1cccc(C(c2ccc3[nH]cnc3c2)n2ccnc2)c1 (centres unmarked) [liarozole]
retinoid-like effect of treatment (in words) (psoriasis): amelioration of psoriasis
